Results on eleven molecules are retold here after US4564619A, “Carbostyril derivative” (Otsuka Pharmaceutical Co., Ltd., priority 1982, dated 1986).

By inhibition is commonly meant how much of the control response was suppressed.

Molecules are shown by their SMILES.

Experiment [1] concerns collagen-induced aggregation in rabbit platelets. Nature of the experiment: Inhibition of collagen-induced platelet aggregation in rabbit platelet rich plasma. The class given is cell-based. The note with it: Oryctolagus cuniculus, read-out: Inhibition rate of collagen-induced aggregation; for inhibition at 100 µM (stock): Concentration of the test compound solution 10^-4 mole; for inhibition at 10 µM (stock): Concentration of the test compound solution 10^-5 mole. The protocol: (§1) The platelet aggregation inhibitory effect was measured by using a Platelet Aggregation Tracer Model PAT-6M (manufactured by Nikoh Bio-Science Co., Ltd.) by a method according to Kimura, et al., [IGAKU-NO-AYUMI (Progress in Medicine), Vol. 114, No. 9, pp. 718-727, Aug. 30, 1980, and Nature, pp. 927-929, 1962].
(§2) The blood sample used for the test was a 1:9 (by volume) mixture of "3.8%-CITRATE"® (a registered trademark for 3.8%-sodium citrate, manufactured by Green Cross Corp.) and whole blood collected from rabbits. Said sample was subjected to 10-minute centrifugal separation at 1,000 r.p.m. (200xG) to obtain a platelet rich plasma (PRP). The PRP thus obtained was separated, and the remaining blood sample was further subjected to 15-minute centrifugal separation at 3,000 r.p.m. (2,000xG) to obtain a platelet poor plasma (PPP).
(§3) The number of platelets in the PRP was counted by the Brecher-Clonkite Method, and the PRP was diluted with the PPP to prepare a PRP sample with a platelet concentration of 600,000/microliter to prepare for an adenosine diphosphate (ADP)-induced aggregation test, and a collagen-induced aggregation test. 0.2 Milliliter of the PRP sample was added to 2 microliters of a solution of a test compound of predetermined concentration and this mixture was placed in a 37° C. thermostat for one minute. Then 20 microliters of an ADP or collagen solution was added to the mixture. In this test, the ADP solution was prepared by adjustment to a concentration of 7.5×10^-5 M by using Auren-Beronal buffer solution (pH 7.35). Further, the collagen solution was prepared by adjustment to a concentration of 200 micrograms/ml by using collagen reagent of "Holm"® (manufactured by Hormon-Chemie Munchen, GmbH.) which was diluted wih a physiological saline solution.
(§4) The transmittance of the resultant test mixture was determined and the change of transmittance was recorded by using the aggregometer at a stirrer speed of 1,100 r.p.m.
(§5) The platelet aggregation inhibitory effect of the test compound was measured in terms of inhibition rate (%) with respect to the aggregation rate of the controls. The aggregation rate was calculated from the following formula.
(§6) Aggregation rate=[(c-a)/(b-a)]×100
(§7) The percent inhibition is calculated from the following formula.
(§8) Inhibition rate (%)=[(A-B)/A]×100
(§9) The inhibitory effect of the test compounds on collagen-induced aggregation in rabbit platelets is shown in Table 1, similarly such effect on ADP-induced aggregation in rabbit platelets is shown in Table 2.

The nature of experiment [2]: Change of blood pressure, intravenous administration, anesthetized dog. The format is in vivo. Also on record: unit not given here. The note with it: femoral artery. The procedure: The change of blood flow in coronary artery and the change of blood pressure were measured by a method according to Yakura et al., [Japan Journal of Pharmacology, Vol. 57, pages 380-391 (1961)] and according to Taira, et al. [Clin. Exp. Pharmacol. Physiol., Vol. 6, pages 301-316, (1976)].
An adult bastard dog of either sex weighing 8-13 kg was anesthetized with sodium pentobarbital at the rate of 30 mg/kg by intraveneous administration, then the dog was fixed in supination and was theracotomized under a condition of forced breathing. After another intraveneous administration of sodium heparin at the rate of 500 U/kg, 100 U/kg per hour, the dog was subjected to the following experiments.
(2) Intraveneous administration
Morawitz's cannula was cannulated to the coronary sinus venosus through the auricula dextra cordis, and the blood in vein was circulated to the right carotid. The blood flow was measured by an electromagnetic blood flow meter equipped with a blood flow observation probe in the extracorporeal circulation path of the vein. The systolic force was measured by a systolometer (pick-up) placed at the left ventricle of heart, the blood pressure was measured from the femoral artery, and the heart rate was measured from the pulse. A compound to be tested was administered through the cannula being cannulated in femoral vein. The increased amount of the blood flow in coronary artery after the administration of the test compound is shown in Table 4, also the change of blood pressure is shown in Table 5.

The test system of experiment [3] is ADP-induced aggregation in rabbit platelets. Nature of the experiment: Inhibition of ADP-induced platelet aggregation in rabbit platelet rich plasma. The note with it: Oryctolagus cuniculus, read-out: Inhibition rate of ADP-induced aggregation; for inhibition at 100 µM (stock): Concentration of the test compound solution 10^-4 mole; for inhibition at 10 µM (stock): Concentration of the test compound solution 10^-5 mole. The format is cell-based. The procedure:
as §1, §2, §3, §4, §5, §6, §7, §8, §9

`COC(=O)C1=C(C)NC(C)=C(C(=O)OCCCCOc2cccc3[nH]c(=O)ccc23)C1c1cccc([N+](=O)[O-])c1` (stereo not shown) [Compound 18, 5-{4-[2,6-Dimethyl-5-methoxycarbonyl-4-(3-nitrophenyl)-1,4-dihydropyridin-3-carboxy]-butoxy}carbostyril]: the figures for the inhibition at 100 µM (stock) in experiment [1] and in experiment [3] were 100% and 48%, respectively. The inhibition at 10 µM (stock) in experiment [1] stood at 3%; in experiment [3], 15%. The “Change of blood pressure” value in experiment [2] (10 micrograms/kg) was -5; in experiment [2] (30 micrograms/kg) it was -19; in experiment [2] (100 micrograms/kg), -33; in experiment [2] (300 micrograms/kg), -43.
Consider `COC(=O)C1=C(C)NC(C)=C(C(=O)OCCCCOc2ccc3c(c2)CCC(=O)N3)C1c1ccccc1SC` (stereo not shown) [Compound 26, 6-{4-[2,6-Dimethyl-5-methoxycarbonyl-4-(2-methylthiophenyl)-1,4-dihydropyridin-3-carboxy]butoxy}-3,4-dihydrocarbostyril], for which the inhibition at 100 µM (stock) came to 100% in experiment [1] and 87% in experiment [3]. In addition, the inhibition at 10 µM (stock) in experiment [1] is 19%; in experiment [3], 22%. The “Change of blood pressure” value is given as -6 in experiment [2] (10 micrograms/kg), -10 in experiment [2] (30 micrograms/kg), -21 in experiment [2] (100 micrograms/kg) and -42 in experiment [2] (300 micrograms/kg).
Turning to `COC(=O)C1=C(C)NC(C)=C(C(=O)OCCOc2ccc3c(c2)CCC(=O)N3)C1c1ccccc1[N+](=O)[O-]` (stereo not shown) [Compound 21, 6-{2-[2,6-Dimethyl-5-methoxycarbonyl-4-(2-nitrophenyl)-1,4-dihydropyridin-3-carboxy]-ethoxy}-3,4-dihydrocarbostyril], the inhibition at 100 µM (stock) in experiment [1] stood at 100%; in experiment [3], 58%. Further, the inhibition at 10 µM (stock) in experiment [1] is 99%; in experiment [3] it was 27%. Besides, the “Change of blood pressure” value in experiment [2] (10 micrograms/kg) was -7; in experiment [2] (30 micrograms/kg), -12; in experiment [2] (100 micrograms/kg) it was -28; in experiment [2] (300 micrograms/kg), -42.
Regarding `C=CCOc1ccc(OCCCCOC(=O)C2=C(C)NC(C)=C(C(=O)OC)C2c2cccc([N+](=O)[O-])c2)c2c1NC(=O)CC2` (stereo not shown) [Compound 19, 5-{4-[2,6-Dimethyl-5-methoxycarbonyl-4-(3-nitrophenyl)-1,4-dihydropyridin-3-carboxy]-butoxy}-8-alloyloxy-3,4-dihydrocarbostyril], the inhibition at 100 µM (stock) in experiment [1] and in experiment [3] was 17% throughout. Besides, the “Change of blood pressure” value in experiment [2] (3 micrograms/kg) is given as -22; in experiment [2] (10 micrograms/kg) it was -34; in experiment [2] (30 micrograms/kg), -44; in experiment [2] (100 micrograms/kg) it was -55.
Take `COC(=O)C1=C(C)NC(C)=C(C(=O)OCCCOc2ccc3[nH]c(=O)ccc3c2)C1c1ccccc1` (stereo not shown) [Compound 44, 6-[3-(2,6-Dimethyl-5-methoxycarbonyl-4-phenyl-1,4-dihydropyridin-3-carboxy)propoxy]-carbostyril]: the inhibition at 100 µM (stock) in experiment [1] and in experiment [3] was 100% in each case. Further, the inhibition at 10 µM (stock) worked out at 25% in experiment [1] and 20% in experiment [3]. Further, the “Change of blood pressure” value is recorded as -1 in experiment [2] (10 micrograms/kg), -3 in experiment [2] (30 micrograms/kg), -6 in experiment [2] (100 micrograms/kg) and -52 in experiment [2] (300 micrograms/kg).
Turning to `COC(=O)C1=C(C)NC(C)=C(C(=O)OCCCCOc2ccc3c(c2)CCC(=O)N3)C1c1ccccc1C(=O)OC` (stereo not shown) [Compound 30, 6-{4-[2,6-Dimethyl-5-methoxycarbonyl-4-(2-methoxycarbonyl)-1,4-dihydropyridin-3-carboxy]butoxy}-3,4-dihydrocarbostyril], the inhibition at 100 µM (stock) in experiment [1] amounted to 100%; in experiment [3], 89%. In addition, in experiment [1], the inhibition at 10 µM (stock) came to 3%. Besides, the figures for the “Change of blood pressure” value in experiment [2] (10 micrograms/kg), in experiment [2] (30 micrograms/kg) and in experiment [2] (100 micrograms/kg) were -1, -16 and -38, respectively.
For `COC(=O)C1=C(C)NC(C)=C(C(=O)OCCCCOc2ccc3c(c2)CCC(=O)N3)C1c1ccccc1` (stereo not shown) [Compound 28, 6-[4-(2,6-Dimethyl-5-methoxycarbonyl-4-phenyl-1,4-dihydropyridin-3-carboxy)butoxy]-3,4-dihydrocarbostyril], the inhibition at 100 µM (stock) in experiment [1] turned out to be 63%; in experiment [3], 52%. For the same molecule, the “Change of blood pressure” value is on record as -1 in experiment [2] (3 micrograms/kg); -10 in experiment [2] (10 micrograms/kg); -7 in experiment [2] (30 micrograms/kg); -20 in experiment [2] (100 micrograms/kg); -47 in experiment [2] (300 micrograms/kg).
As for `COC(=O)C1=C(C)NC(C)=C(C(=O)OCCCCOc2ccc3[nH]c(=O)ccc3c2)C1c1cccc([N+](=O)[O-])c1` (stereo not shown) [Compound 15, 6-{4-[2,6-Dimethyl-5-methoxycarbonyl-4-(3-nitrophenyl)-1,4-dihydropyridin-3-carboxy]-butoxy}carbostyril], the inhibition at 100 µM (stock) in experiment [1] and in experiment [3] was 100% throughout. In addition, the inhibition at 10 µM (stock) was 26% in experiment [1] and 20% in experiment [3]. Besides, the “Change of blood pressure” value is -3 in experiment [2] (30 micrograms/kg), -9 in experiment [2] (100 micrograms/kg) and -27 in experiment [2] (300 micrograms/kg).
Take `COC(=O)C1=C(C)NC(C)=C(C(=O)OCCCOc2cccc3[nH]c(=O)ccc23)C1c1cccc([N+](=O)[O-])c1` (stereo not shown) [Compound 22, 5-{3-[2,6-Dimethyl-5-methoxycarbonyl-4-(3-nitrophenyl)-1,4-dihydropyridin-3-carboxy]-propoxy}carbostyril]: the inhibition at 100 µM (stock) in experiment [1] turned out to be 100%; in experiment [3] it was 62%. For the same molecule, the inhibition at 10 µM (stock) in experiment [1] was found to be 21%; in experiment [3], 13%. The “Change of blood pressure” value was -2 in experiment [2] (10 micrograms/kg), -8 in experiment [2] (30 micrograms/kg), -18 in experiment [2] (100 micrograms/kg) and -36 in experiment [2] (300 micrograms/kg).
`COC(=O)C1=C(C)NC(C)=C(C(=O)OCCCCOc2ccc3[nH]c(=O)ccc3c2)C1c1ccccc1C(F)(F)F` (stereo not shown) [Compound 24, 6-{4-[2,6-Dimethyl-5-methoxycarbonyl-4-(2-trifluoromethylphenyl)-1,4-dihydropyridin-3-carboxy]butoxy}carbostyril]: the inhibition at 100 µM (stock) in experiment [1] and in experiment [3] was 100% in each case. The inhibition at 10 µM (stock) in experiment [1] stood at 30%; in experiment [3] it was 62%. The “Change of blood pressure” value was -6 in experiment [2] (10 micrograms/kg), -18 in experiment [2] (30 micrograms/kg), -30 in experiment [2] (100 micrograms/kg) and -44 in experiment [2] (300 micrograms/kg).
Regarding `COC(=O)C1=C(C)NC(C)=C(C(=O)OCCCOc2cc(=O)[nH]c3ccccc23)C1c1cccc([N+](=O)[O-])c1` (stereo not shown) [Compound 37, 4-{3-[2,6-Dimethyl-5-methoxycarbonyl-4-(3-nitrophenyl)-1,4-dihydropyridin-3-carboxy]propoxy}carbostyril], the inhibition at 100 µM (stock) in experiment [1] is 15%; in experiment [3], 17%. In addition, the “Change of blood pressure” value in experiment [2] (30 micrograms/kg) is on record as -1; in experiment [2] (100 micrograms/kg), -5; in experiment [2] (300 micrograms/kg), -18.
